pIC50: −log10 of the molar value.

In general, pIC50 refers to −log10 of the IC50, conventionally taken in molar units. Read a low pIC50 as a large IC50.

The target of assay [1] is whole RNP complex of IAV strain A/PR/8/34 (Influenza A virus, UniProt P03433). As to the kind of experiment: Transcription assay (TA assay). The assay is classed as biochemical. Conditions: RNPs of A/PR/8/34, capped RNA substrate.
Assay [2] has as its system influenza A virus A/Aichi/2/68 (H3N2) on MDCK cells. As to the kind of experiment: Cytopathic effect (CPE) assay. Conditions: for pIC50: Influenza A virus, 48 hrs; for CPE (% CPE reduction): @ 50 μM. The assay is classed as cell-based. Background: Protection from cytopathic effect is a common read-out in antiviral testing.
In assay [3] the target is T1, influenza A virus (IAV) PA-Nter fragment (amino acids 1-209) (Influenza A virus, UniProt P31343).
T1 construct: PA-Nter fragment (amino acids 1-209); made in house
Put plainly: FRET endonuclease activity assay. The assay is classed as biochemical. As to conditions: PA-Nter 0.5 μM, 1.6 μM RNA substrate.

Consider `CC(C)N1CCn2c(CN(Cc3cccc(-c4ccccc4)c3)C3CC3)cc(=O)c(O)c2C1=O`, for which the pIC50 in assay [1] was 6.27; in assay [2] (the 2nd table), under 4.30.
As for `CCCN(Cc1ccc(-c2ccccc2)cc1)Cc1cc(=O)c(O)c2n1CCN(C(C)C)C2=O`, the pIC50 is 4.20 in assay [1] and under 4.30 in assay [2] (the 2nd table).
Regarding `CCN(Cc1cccc2ccccc12)Cc1cc(=O)c(O)c2n1CCN(C(C)C)C2=O`, the values for the pIC50 in assay [1] and in assay [2] (the 2nd table) were 6.66 and under 4.30, respectively.
Consider `CC(C)N1CCn2c(CN(C)Cc3ccccc3)cc(=O)c(O)c2C1=O`, for which the pIC50 was 6.09 in assay [1] and under 4.30 in assay [2] (the 2nd table).
`CCN(Cc1ccc(Cl)cc1)Cc1cc(=O)c(O)c2n1CCN(C(C)C)C2=O.O=C(O)C(F)(F)F` gave a pIC50 in assay [1] of 6.17. The “CPE (% CPE reduction)” value in assay [2] is recorded as 18% @ 50 μM.
As for `CC(C)N1CCn2c(CN(Cc3cccc4ccccc34)C(=O)C3CC(F)(F)C3)cc(=O)c(O)c2C1=O`, the negative-log IC50 (pIC50) in assay [1] was 6.60; in assay [2] (the 2nd table) it was under 4.30.
The matching figures for `CC(C)N1CCn2c(CNCc3ccccc3-c3ccccc3)cc(=O)c(O)c2C1=O`: 6.27 and under 4.30.
In the case of `CC(C)N1CCn2c(CN(Cc3ccccc3-c3ccccc3)C(=O)C3CC(F)(F)C3)cc(=O)c(O)c2C1=O`, the negative-log IC50 (pIC50) in assay [1] was 6.64; in assay [2] (the 2nd table), under 4.30.
Turning to `CCCN(Cc1cc(=O)c(O)c2n1CCN(C(C)C)C2=O)CC1(c2ccccc2)CCCC1`, the negative-log IC50 (pIC50) in assay [1] was 6.34; in assay [2] (the 2nd table) it was under 4.30.
The matching figures for `CC(C)N1CCn2c(CN(Cc3ccccc3)C(=O)C3CC(F)(F)C3)cc(=O)c(O)c2C1=O`: 5.53 and under 4.30.
Turning to `CC(C)N1CCn2c(CN(Cc3ccc(-c4ccccc4)cc3)C3CC3)cc(=O)c(O)c2C1=O`, the pIC50 in assay [1] was 5.27; in assay [2] (the 2nd table) it was under 4.30.
The matching figures for `CCN(Cc1ccccc1)Cc1cc(=O)c(O)c2n1CCN(C(C)C)C2=O`: 5.81 and under 4.30.
Consider `CC(C)N1CCn2c(CNS(=O)(=O)C3CC3)cc(=O)c(O)c2C1=O`, for which the values for the pIC50 in assay [3] and in assay [2] (the 1st table) were 6.74 and under 4.30, respectively.
Consider `CC(C)N1CCn2c(CNS(=O)(=O)Cc3ccccc3)cc(=O)c(O)c2C1=O`, for which the pIC50 was 6.73 in assay [3] and under 4.30 in assay [2] (the 1st table).
For `CC(=O)N(Cc1cc(=O)c(O)c2n1CCN(C(C)C)C2=O)C1CCCCC1`, the negative logarithm of the IC50 (pIC50) is 7.32 in assay [3] and under 4.30 in assay [2] (the 1st table).
The matching figures for `CC(C)N1CCn2c(CNS(=O)(=O)c3c(Cl)cccc3Cl)cc(=O)c(O)c2C1=O`: 6.92 and under 4.30.
In the case of `CCCN(Cc1cccc2ccccc12)Cc1cc(=O)c(O)c2n1CCN(C(C)C)C2=O`, the pIC50 in assay [1] is 5.99; in assay [2] (the 2nd table) it was under 4.30.
Consider `CCCN(Cc1ccccc1)Cc1cc(=O)c(O)c2n1CCN(C(C)C)C2=O`, for which the pIC50 is 6.41 in assay [3] and under 4.30 in assay [2] (the 1st table).
With `Cc1cccc(C(=O)NCc2cc(=O)c(O)c3n2CCN(C(C)C)C3=O)c1`, the negative logarithm of the IC50 (pIC50) is 5.97 in assay [3] and under 4.30 in assay [2] (the 1st table).
With `CC(C)N1CCn2c(CNS(=O)(=O)c3ccc(Cl)cc3Cl)cc(=O)c(O)c2C1=O`, the figures for the pIC50 in assay [3] and in assay [2] (the 1st table) were 6.84 and under 4.30, respectively.
As to `CC(C)N1CCn2c(CNC(=O)C3(c4ccc(Cl)cc4)CCCC3)cc(=O)c(O)c2C1=O`, the negative logarithm of the IC50 (pIC50) was 6.08 in assay [3] and under 4.30 in assay [2] (the 1st table).
In the case of `CC(C)N1CCn2c(CNC(=O)c3ccccc3)cc(=O)c(O)c2C1=O`, in assay [3], the “FRET IC50” value is listed as “insoluble”. This compound also had a pIC50 in assay [2] (the 1st table) of under 4.30.
As to `CCCN(Cc1ccccc1-c1ccccc1)Cc1cc(=O)c(O)c2n1CCN(C(C)C)C2=O.O=C(O)C(F)(F)F`, the “TA IC50” value in assay [1] was “in- soluble”. Moreover, the pIC50 in assay [2] (the 2nd table) was under 4.30.
As to `CC(C)N1CCn2c(CN(Cc3cccc(Cl)c3)C3CC3)cc(=O)c(O)c2C1=O`, the negative-log IC50 (pIC50) in assay [1] is 6.77; in assay [2] (the 2nd table), under 4.30.
Turning to `CC(C)CC(=O)N(Cc1cc(=O)c(O)c2n1CCN(C(C)C)C2=O)C1CCCCC1`, the results for the negative logarithm of the IC50 (pIC50) in assay [3] and in assay [2] (the 1st table) were 6.33 and under 4.30, respectively.
The matching figures for `CC(C)N1CCn2c(CNC(=O)c3ccc(C(F)(F)F)cc3)cc(=O)c(O)c2C1=O`: 5.02 and under 4.30.
In the case of `CC(C)N1CCn2c(CN(C(=O)Cc3ccc(F)cc3F)C3CCCCC3)cc(=O)c(O)c2C1=O`, the pIC50 in assay [3] was 6.24; in assay [2] (the 1st table), under 4.30.
The matching figures for `CC(C)CS(=O)(=O)NCc1cc(=O)c(O)c2n1CCN(C(C)C)C2=O`: 6.68 and under 4.30.
Consider `CC(C)N1CCn2c(CN(C)Cc3ccc(Cl)cc3)cc(=O)c(O)c2C1=O`, for which the figures for the negative-log IC50 (pIC50) in assay [1] and in assay [2] (the 2nd table) were 5.67 and under 4.30, respectively.
Regarding `CC(C)N1CCn2c(CNC(=O)CC(C)(C)C)cc(=O)c(O)c2C1=O`, the results for the pIC50 in assay [3] and in assay [2] (the 1st table) were 6.42 and under 4.30, respectively.
On to `CC(C)N1CCn2c(CNC3CCCCC3)cc(=O)c(O)c2C1=O`, for which the pIC50 in assay [3] was 6.30; in assay [2] (the 1st table), under 4.30.
As for `CC(C)N1CCn2c(CNS(=O)(=O)c3cccc(F)c3)cc(=O)c(O)c2C1=O`, the pIC50 in assay [3] is 6.82; in assay [2] (the 1st table), under 4.30.
For `CCCN(Cc1cccc(-c2ccccc2)c1)Cc1cc(=O)c(O)c2n1CCN(C(C)C)C2=O`, the values for the negative-log IC50 (pIC50) in assay [1] and in assay [2] (the 2nd table) were 6.16 and under 4.30, respectively.
Regarding `CC(C)N1CCn2c(CNS(=O)(=O)N(C)C)cc(=O)c(O)c2C1=O`, the pIC50 in assay [3] is 7.05; in assay [2] (the 1st table), under 4.30.
Regarding `CC(C)N1CCn2c(CN(Cc3ccccc3)Cc3ccccc3)cc(=O)c(O)c2C1=O`, the pIC50 in assay [3] was 5.81; in assay [2] (the 1st table), under 4.30.
The matching figures for `CC(C)N1CCn2c(CNS(=O)(=O)c3ccccc3)cc(=O)c(O)c2C1=O`: 6.89 and under 4.30.
Consider `CC(C)N1CCn2c(CN(C)Cc3cccc(Cl)c3)cc(=O)c(O)c2C1=O.O=C(O)C(F)(F)F`, for which, in assay [1], the negative logarithm of the IC50 (pIC50) was 7.09. Moreover, the “CPE (% CPE reduction)” value in assay [2] came to 30.8% @ 50 μM.
Consider `CN1CCn2c(CNS(=O)(=O)c3ccccc3)cc(=O)c(O)c2C1=O`, for which the negative logarithm of the IC50 (pIC50) in assay [3] was 7.57; in assay [2] (the 1st table) it was under 4.30.
For the compound `CCCN(Cc1cc(=O)c(O)c2n1CCN(C(C)C)C2=O)C1(c2ccccc2)CCCC1`, the negative-log IC50 (pIC50) in assay [1] is 6.06; in assay [2] (the 2nd table) it was under 4.30.
With `CC(C)N1CCn2c(CNC(=O)C34CCC(CO)(CC3)CC4)cc(=O)c(O)c2C1=O`, the results for the pIC50 in assay [3] and in assay [2] (the 1st table) were 5.73 and under 4.30, respectively.
For `CN1CCn2c(CNS(=O)(=O)c3cccc(Cl)c3)cc(=O)c(O)c2C1=O`, the pIC50 in assay [3] was 7.09; in assay [2] (the 1st table), under 4.30.
With `CC(C)N1CCn2c(CNC(=O)CC34C[C@H]5C[C@@H](C3)C[C@@H](C4)C5)cc(=O)c(O)c2C1=O`, the results for the negative-log IC50 (pIC50) in assay [3] and in assay [2] (the 1st table) were 5.77 and under 4.30, respectively.
For the compound `CC(C)N1CCn2c(CNS(=O)(=O)c3cccc4ccccc34)cc(=O)c(O)c2C1=O`, the pIC50 in assay [3] is 6.91; in assay [2] (the 1st table), under 4.30.
With `CN1CCn2c(CNS(=O)(=O)c3ccc(Cl)cc3)cc(=O)c(O)c2C1=O`, the values for the pIC50 in assay [3] and in assay [2] (the 1st table) were 6.89 and under 4.30, respectively.
`CC(C)N1CCn2c(CNS(=O)(=O)Cc3ccc(Cl)cc3)cc(=O)c(O)c2C1=O`: the pIC50 in assay [3] was 6.22; in assay [2] (the 1st table), under 4.30.
With `CC(=O)N(Cc1ccccc1)Cc1cc(=O)c(O)c2n1CCN(C(C)C)C2=O`, the negative logarithm of the IC50 (pIC50) in assay [3] was 7.36; in assay [2] (the 1st table) it was under 4.30.
For the compound `CC(C)N1CCn2c(CNC(=O)CCC(F)(F)F)cc(=O)c(O)c2C1=O`, the results for the pIC50 in assay [3] and in assay [2] (the 1st table) were 6.60 and under 4.30, respectively.
For `Cc1ccc(S(=O)(=O)NCc2cc(=O)c(O)c3n2CCN(C(C)C)C3=O)cc1`, the pIC50 in assay [3] was 6.69; in assay [2] (the 1st table) it was under 4.30.
Consider `CC(C)N1CCn2c(CNC(=O)c3ccc(C#N)cc3)cc(=O)c(O)c2C1=O`, for which the pIC50 in assay [3] was 6.40; in assay [2] (the 1st table) it was under 4.30.
For `CC(C)N1CCn2c(CN(C)Cc3ccc(-c4ccccc4)cc3)cc(=O)c(O)c2C1=O`, the negative logarithm of the IC50 (pIC50) was 4.93 in assay [1] and under 4.30 in assay [2] (the 2nd table).
Take `CC(C)N1CCn2c(CNC(=O)CC(F)(F)F)cc(=O)c(O)c2C1=O`: the pIC50 in assay [3] is 6.49; in assay [2] (the 1st table) it was under 4.30.
The matching figures for `CC(C)N1CCn2c(CNC(=O)c3cccn3C)cc(=O)c(O)c2C1=O`: 6.51 and under 4.30.

Source of the values: patent US20160002226A1, “PYRI[…] AND THEIR USE IN THE TREATMENT, AMELIORATION OR PREVENTION OF INFLUENZA” (F. Hoffmann-La Roche AG, priority 2014, published 2016).
